Experimental findings from patent US20220160686A1, “MACROCYCLIC AZOLOPYRIDINE DERIVATIVES AS EED AND PRC2 MODULATORS” (Fulcrum Therapeutics, Inc., priority 2019, published 2022) are described below.

The assay deals with human P-glycoprotein HEK cells (HEK-P-gp). Description: H3K27me3 immunocytochemistry assay in P-gp expressing HEK293T cells, with or without elacridar. It is filed as cell-based. The following applies: Homo sapiens, 4 days compound treatment. An outline of the steps:
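HEK293T stably expressing human ABCB1 (vinblastine-selected), 1000 cells/well, treated with serially diluted compound for 4 days at 37° C, with or without 250 nM elacridar. Fixed cells stained with anti-H3K27me3 plus Alexa 488 secondary and Hoechst; imaged at 10×, nuclei identified by Hoechst.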

[1] abbreviates: HEK293, 96 h, without elacridar, read-out: IC50, inhibitory activity on human P-glycoprotein HEK cells (HEK-P-gp).
Where [2] appears, read: HEK293, with 250 nM elacridar, read-out: IC50, inhibitory activity on human P-glycoprotein HEK cells (HEK-P-gp) pretreated with elacridar.

pIC50: −log10 of the molar value. Where two headings read alike, the source gives them in different places.

A word on the pIC50: it is the negative decadic logarithm of the IC50, by convention in mol/L. As to `Cc1ncccc1-c1cc2c(n3cnnc13)NCc1c(F)cccc1CCO2` [Compound 5, 12-fluoro-4-(2-methylpyridin-3-yl)-7,8,13,14-tetrahydro-[1,2,4]triazolo[4′,3′:1,6]pyrido[3,2-b]benzo[f][1,4]oxazonine], the pIC50 is, setting by setting: under setting [1], < 6.30; under setting [2], < 6.30.
Regarding `Cn1nc(F)cc1-c1cc2c(n3cnnc13)NCc1c(F)ccc3c1[C@@H](CO3)CO2` [Compound 168, (S)-12-fluoro-4-(3-fluoro-1-methyl-1H-pyrazol-5-yl)-7a,8,13,14-tetrahydro-7H-[1,2,4]triazolo[4′,3′:1,6]pyrido[3,2-b]benzofuro[4,3-fg][1,4]oxazonine], the pIC50 runs as follows: under setting [1], > 7.60; under setting [2], > 7.60.
On to `Cn1nc(C(C)(C)C#N)cc1-c1cc2c(n3cnnc13)NCc1c(F)ccc3c1[C@@H](CO3)CO2` [Compound 169, (S)-2-(5-(12-fluoro-7a,8,13,14-tetrahydro-7H-[1,2,4]triazolo[4′,3′:1,6]pyrido[3,2-b]benzofuro[4,3-fg][1,4]oxazonin-4-yl)-1-methyl-1H-pyrazol-3-yl)-2-methylpropanenitrile], for which the pIC50 is, setting by setting: under setting [1], > 7.60; under setting [2], > 7.60.
As to `Cn1cc(Cc2cc3c(n4cnnc24)NCc2cccc4c2[C@@H](CO4)CO3)cn1` [Compound 7, (S)-4-((1-methyl-1H-pyrazol-4-yl)methyl)-7a,8,13,14-tetrahydro-7H-[1,2,4]triazolo[4′,3′:1,6]pyrido[3,2-b]benzofuro[4,3-fg][1,4]oxazonine], the pIC50 by setting is: under setting [1], < 6.30; under setting [2], 6.30 to 7.00.
With `Cc1ncccc1-c1cc2c(n3cnnc13)NCc1c(F)cccc1COC2` [Compound 6, 12-fluoro-4-(2-methylpyridin-3-yl)-6,8,13,14-tetrahydro-[1,2,4]triazolo[4′,3′:1,6]pyrido[3,2-c]benzo[g][1,5]oxazonine], the pIC50 under setting [1] was < 6.30 and the pIC50 under setting [2] was < 6.30.
`Fc1ccc2c3c1CNc1c(cc(C4COC4)c4nncn14)OC[C@@H]3CO2` [Compound 12, (S)-12-fluoro-4-(oxetan-3-yl)-7a,8,13,14-tetrahydro-7H-[1,2,4]triazolo[4′,3′:1,6]pyrido[3,2-b]benzofuro[4,3-fg][1,4]oxazonine]: the pIC50 by setting is: under setting [1], 7.00 to 7.30; under setting [2], 7.30 to 7.60.
As to `Cc1ncccc1-c1cc2c(n3cc(C(N)=O)nc13)NCc1c(F)ccc3c1[C@@H](CO3)CO2` [Compound 176, (S)-5-fluoro-12-(2-methylpyridin-3-yl)-6,7,15,15a-tetrahydro-1H-benzofuro[4,3-fg]imidazo[r,2′:1,6]pyrido[3,2-b][1,4]oxazonine-10-carboxamide], the pIC50 reads like this: under setting [1], < 6.30; under setting [2], < 6.30.
Consider `COC(=O)N1CCC(c2cc3c(n4cnnc24)NCc2c(F)ccc4c2C(CO4)CO3)CC1` [Compound 16, methyl (S)-4-(12-fluoro-7a,8,13,14-tetrahydro-7H-[1,2,4]triazolo[4′,3′:1,6]pyrido[3,2-b]benzofuro[4,3-fg][1,4]oxazonin-4-yl)piperidine-1-carboxylate], for which the pIC50 was 6.30 to 7.00 under setting [1] and 7.00 to 7.30 under setting [2].
Take `Cn1nc(OC(F)F)cc1-c1cc2c(n3cnnc13)NCc1c(F)ccc3c1[C@@H](CO3)CO2` [Compound 167, (S)-4-(3-(difluoromethoxy)-1-methyl-1H-pyrazol-5-yl)-12-fluoro-7a,8,13,14-tetrahydro-7H-[1,2,4]triazolo[4′,3′:1,6]pyrido[3,2-b]benzofuro[4,3-fg][1,4]oxazonine]: the pIC50 is > 7.60 under setting [1] and > 7.60 under setting [2].
Turning to `Cn1nccc1-c1cc2c(n3cc(C#N)nc13)NCc1c(F)ccc3c1[C@@H](CO3)CO2` [Compound 172, (S)-5-fluoro-12-(1-methyl-1H-pyrazol-5-yl)-6,7,15,15a-tetrahydro-1H-benzofuro[4,3-fg]imidazo[r,2′:1,6]pyrido[3,2-b][1,4]oxazonine-10-carbonitrile], the negative-log IC50 (pIC50) is, setting by setting: under setting [1], 7.30 to 7.60; under setting [2], 7.30 to 7.60.
As to `Cc1ncccc1-c1cc2c(n3cc(C#N)nc13)NCc1c(F)ccc3c1[C@@H](CO3)CO2` [Compound 186, (S)-5-fluoro-12-(2-methylpyridin-3-yl)-6,7,15,15a-tetrahydro-1H-benzofuro[4,3-fg]imidazo[1′,2′:1,6]pyrido[3,2-b][1,4]oxazonine-10-carbonitrile], the pIC50 was 7.00 to 7.30 under setting [1] and 7.30 to 7.60 under setting [2].
Turning to `CS(=O)(=O)c1ccc(-c2cc3c(n4cnnc24)NCc2c(F)ccc4c2C(CO4)CO3)cc1` (centres unmarked) [Example 36], the pIC50 was > 7.60 under setting [1] and > 7.60 under setting [2].
With `Cc1ncccc1-c1cc2c(n3cnnc13)NCc1cccc3c1[C@H](CO3)CO2` [Compound 1, (15R)-10-(2-methyl-3-pyridyl)-13,17-dioxa-3,5,7,8-tetrazapentacyclo[13.6.1.04,12.05,9.018,22] docosa-1(22),4(12),6,8,10,18,20-heptaene], the pIC50 is 6.30 to 7.00 under setting [1] and > 7.60 under setting [2].
As to `Fc1ccc2c3c1CNc1c(cc(Br)c4nncn14)OC[C@@H]3CO2` [Compound 165, (S)-4-bromo-12-fluoro-7a,8,13,14-tetrahydro-7H-[1,2,4]triazolo[4′,3′:1,6]pyrido[3,2-b]benzofuro[4,3-fg][1,4]oxazonine], the pIC50 is, setting by setting: under setting [1], < 6.30; under setting [2], < 6.30.
On to `COc1ncc(-c2cc3c(n4cnnc24)NCc2c(F)ccc4c2[C@H](CO4)CO3)cn1` [Example 30], for which the pIC50 under setting [1] is 7.00 to 7.30 and the negative-log IC50 (pIC50) under setting [2] is 7.30 to 7.60.
`Cc1ncoc1-c1cc2c(n3cnnc13)NCc1c(F)ccc3c1[C@@H](CO3)CO2` [Compound 189, (S)-12-fluoro-4-(4-methyloxazol-5-yl)-7a,8,13,14-tetrahydro-7H-[1,2,4]triazolo[4′,3′:1,6]pyrido[3,2-b]benzofuro[4,3-fg][1,4]oxazonine]: the negative logarithm of the IC50 (pIC50) was > 7.60 under setting [1] and > 7.60 under setting [2].
For `Cc1ncc(-c2cc3c(n4cnnc24)NCc2c(F)ccc4c2[C@@H](CO4)CO3)c(C)n1` [Compound 13, (S)-4-(2,4-dimethylpyrimidin-5-yl)-12-fluoro-7a,8,13,14-tetrahydro-7H-[1,2,4]triazolo[4′,3′:1,6]pyrido[3,2-b]benzofuro[4,3-fg][1,4]oxazonine], the pIC50 under setting [1] was 7.30 to 7.60 and the negative logarithm of the IC50 (pIC50) under setting [2] was > 7.60.
Consider `Cc1ncc(-c2cc3c(n4cnnc24)NCc2c(F)cccc2CCO3)c(C)n1` [Compound 14, 4-(2,4-dimethylpyrimidin-5-yl)-12-fluoro-7,8,13,14-tetrahydro-[1,2,4]triazolo[4′,3′:1,6]pyrido[3,2-b]benzo[f][1,4]oxazonine], for which the pIC50 by setting is: under setting [1], < 6.30; under setting [2], < 6.30.
In the case of `Cn1nccc1-c1cc2c(n3cc(C(N)=O)nc13)NCc1c(F)ccc3c1[C@@H](CO3)CO2` [Compound 175, (S)-5-fluoro-12-(1-methyl-1H-pyrazol-5-yl)-6,7,15,15a-tetrahydro-1H-benzofuro[4,3-fg]imidazo[r,2′:1,6]pyrido[3,2-b][1,4]oxazonine-10-carboxamide], the pIC50 was < 6.30 under setting [1] and 6.30 to 7.00 under setting [2].
As for `Cn1cc(Cc2cc3c(n4cnnc24)NCc2c(F)ccc4c2[C@@H](CO4)CO3)cn1` [Compound 10, (S)-12-fluoro-4-((1-methyl-1H-pyrazol-4-yl)methyl)-7a,8,13,14-tetrahydro-7H-[1,2,4]triazolo[4′,3′:1,6]pyrido[3,2-b]benzofuro[4,3-fg][1,4]oxazonine], the pIC50 is < 6.30 under setting [1] and 6.30 to 7.00 under setting [2].
As to `c1cc2c3c(c1)OC[C@H]3COc1ccc3nncn3c1NC2` [Compound 11, (S)-7a,8,13,14-tetrahydro-7H-[1,2,4]triazolo[4′,3′:1,6]pyrido[3,2-b]benzofuro[4,3-fg][1,4]oxazonine], the pIC50 by setting is: under setting [1], < 6.30; under setting [2], < 6.30.
As for `Cn1nccc1-c1cc2c(n3cnnc13)NCc1c(F)ccc3c1C(CO3)CO2` (centres unmarked) [Example 17], the pIC50 was > 7.60 under setting [1] and > 7.60 under setting [2].
For `CN(CC(F)(F)F)C(=O)c1cc2c(n3cnnc13)NCc1c(F)ccc3c1C(CO3)CO2` (centres unmarked) [Example 38], the negative logarithm of the IC50 (pIC50) by setting is: under setting [1], 7.00 to 7.30; under setting [2], 6.30 to 7.00.
Regarding `CC(=O)N1CCC(c2cc3c(n4cnnc24)NCc2cccc4c2[C@@H](CO4)CO3)CC1` [Compound 3, (S)-1-(4-(7a,8,13,14-tetrahydro-7H-[1,2,4]triazolo[4′,3′:1,6]pyrido[3,2-b]benzofuro[4,3-fg][1,4]oxazonin-4-yl)piperidin-1-yl)ethan-1-one], the negative-log IC50 (pIC50) runs as follows: under setting [1], < 6.30; under setting [2], 6.30 to 7.00.
Consider `Cn1nc(C(F)(F)F)cc1-c1cc2c(n3cnnc13)NCc1c(F)ccc3c1[C@H](CO3)CO2` [Example 115], for which the pIC50 reads like this: under setting [1], 7.30 to 7.60; under setting [2], > 7.60.
For `Cc1cc(C#N)ccc1-c1cc2c(n3cnnc13)NCc1c(F)ccc3c1[C@H](CO3)CO2` [Example 49], the pIC50 was 7.30 to 7.60 under setting [1] and > 7.60 under setting [2].
As to `Fc1cncnc1-c1cc2c(n3cnnc13)NCc1c(F)ccc3c1[C@@H](CO3)CO2` [Compound 164, (S)-12-fluoro-4-(5-fluoropyrimidin-4-yl)-7a,8,13,14-tetrahydro-7H-[1,2,4]triazolo[4′,3′:1,6]pyrido[3,2-b]benzofuro[4,3-fg][1,4]oxazonine], the negative-log IC50 (pIC50) was > 7.60 under setting [1] and > 7.60 under setting [2].
Consider `CC(=O)N1CCC(c2cc3c(n4cnnc24)NCc2c(F)cccc2CCO3)CC1` [Compound 4, 1-(4-(12-fluoro-7,8,13,14-tetrahydro-[1,2,4]triazolo[4′,3′:1,6]pyrido[3,2-b]benzo[f][1,4]oxazonin-4-yl)piperidin-1-yl)ethan-1-one], for which the negative-log IC50 (pIC50) is, setting by setting: under setting [1], < 6.30; under setting [2], < 6.30.
